The values that follow come from ChEMBL document CHEMBL1139188, “Identification of diamino chromone-2-carboxamides as MCHr1 antagonists with minimal hERG channel activity” (Bioorg Med Chem Lett, 2007).

SMILES strings stand for the structures. Where only a bound is given, the exact number is not on record here.

Series [1] addresses Voltage-gated inwardly rectifying potassium channel KCNH2 (Homo sapiens, UniProt Q12809).
Description: Displacement of [3H]dofetilide from hERG expressed in HEK293 cell membrane
Series [2] can be described thus: Cmax in DIO mouse plasma at 10 mg/kg, po. Further details: dose 10 mg/kg, route oral. Type of series: ADME, organism-based.
The nature of series [3]: Drug level in DIO mouse plasma at 10 mg/kg, po after 12 hrs. Also on record: dose 10 mg/kg, route oral. Type of series: ADME, organism-based.
In the next series the test system is Mus musculus. In words: AUC (0 to infinity) in DIO mouse brain at 10 mg/kg, po. The format is ADME, organism-based. Further details: time infinity, dose 10 mg/kg, route oral. The note with it: in vivo.
Series [4] in a line: Half life in DIO mouse plasma at 10 mg/kg, po. The format is ADME, organism-based. Further details: dose 10 mg/kg, route oral.
Series [5] is described as follows: Cmax in DIO mouse brain at 10 mg/kg, po. The format is ADME, organism-based. Also on record: dose 10 mg/kg, route oral.
In another series the target is hERG (KCNH2) (Homo sapiens, UniProt Q12809). Put plainly: Inhibition of hERG-mediated tail current expressed in HEK293 cells at 30 uM by patch clamp method. Type of series: toxicity, cell-based. The note with it: HEK293 cells that express hERG.
Sequence of hERG (KCNH2) (Q12809 whole entry): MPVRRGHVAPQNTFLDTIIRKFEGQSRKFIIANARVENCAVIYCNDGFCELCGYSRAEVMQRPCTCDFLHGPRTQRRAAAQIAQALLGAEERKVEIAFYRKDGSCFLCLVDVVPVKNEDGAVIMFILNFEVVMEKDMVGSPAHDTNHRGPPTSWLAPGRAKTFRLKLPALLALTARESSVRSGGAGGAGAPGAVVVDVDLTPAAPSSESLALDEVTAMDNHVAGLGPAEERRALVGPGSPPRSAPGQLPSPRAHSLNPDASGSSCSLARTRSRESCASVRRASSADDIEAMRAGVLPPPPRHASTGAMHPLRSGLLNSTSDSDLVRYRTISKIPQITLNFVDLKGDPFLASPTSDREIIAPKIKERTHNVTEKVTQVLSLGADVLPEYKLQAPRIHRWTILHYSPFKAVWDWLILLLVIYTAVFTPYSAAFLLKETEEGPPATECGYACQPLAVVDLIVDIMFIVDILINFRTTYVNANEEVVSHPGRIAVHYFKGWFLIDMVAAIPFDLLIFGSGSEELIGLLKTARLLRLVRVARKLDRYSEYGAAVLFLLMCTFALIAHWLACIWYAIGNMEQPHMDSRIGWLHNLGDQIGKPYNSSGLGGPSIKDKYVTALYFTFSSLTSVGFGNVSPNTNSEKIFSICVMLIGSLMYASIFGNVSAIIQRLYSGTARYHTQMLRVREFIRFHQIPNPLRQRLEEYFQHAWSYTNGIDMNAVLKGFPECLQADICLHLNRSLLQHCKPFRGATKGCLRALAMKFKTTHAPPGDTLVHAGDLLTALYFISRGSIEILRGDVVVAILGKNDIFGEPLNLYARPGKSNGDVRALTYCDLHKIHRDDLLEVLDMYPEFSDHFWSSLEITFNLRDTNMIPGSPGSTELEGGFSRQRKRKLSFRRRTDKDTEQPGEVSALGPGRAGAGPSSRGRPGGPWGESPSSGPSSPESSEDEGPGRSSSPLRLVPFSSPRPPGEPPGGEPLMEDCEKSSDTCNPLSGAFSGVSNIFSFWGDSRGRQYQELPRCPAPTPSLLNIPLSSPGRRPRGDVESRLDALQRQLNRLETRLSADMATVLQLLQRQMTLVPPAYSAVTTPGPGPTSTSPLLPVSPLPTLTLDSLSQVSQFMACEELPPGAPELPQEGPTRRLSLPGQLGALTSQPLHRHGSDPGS
Series [6] in a line: Half life in DIO mouse brain at 10 mg/kg, po. Type of series: ADME, organism-based. Also on record: dose 10 mg/kg, route oral.
The nature of series [7]: AUC (0 to infinity) in DIO mouse plasma at 10 mg/kg, po. The format is ADME, organism-based. Further details: time infinity, dose 10 mg/kg, route oral.
Series [8] in a line: Drug level in DIO mouse brain at 10 mg/kg, po after 12 hrs. The note with it: read-out: Drug uptake. Also on record: dose 10 mg/kg, route oral. Type of series: ADME, organism-based.

Sequence of Voltage-gated inwardly rectifying potassium channel KCNH2 (Q12809 whole entry): as above

As usually defined, the IC50 is the midpoint of a concentration-inhibition curve. Low readings indicate greater potency, high ones weaker potency. The molecule `O=C(NC1CCN(Cc2ccc(OCCCN3C(=O)CSC3=O)c(F)c2)CC1)c1cc(=O)c2ccc(F)cc2o1` yielded a concentration for half-maximal inhibition (IC50) in [1] of 8.5 µM.
Still for that read-out and setting: for `O=C(NCCN1CCCC1)c1ccc(CN2CCC(NC(=O)c3cc(=O)c4ccc(F)cc4o3)CC2)c(Cl)c1` the value was 11 µM; for `COc1cc(C(=O)NCCN2CCCC2)ccc1CN1CCC(NC(=O)c2cc(=O)c3ccc(F)cc3o2)CC1`, 6.6 µM.
The Cmax is the highest concentration seen after dosing. For orientation: half-life means how long it takes for the measured level to halve. Read a low half-life as rapid decline. One may read the inhibition as the drop in the measured response relative to a control, in per cent. Lower therefore signals little suppression. Usually AUC(0-inf) stands for the area under the concentration-time curve extrapolated to infinity. A lower AUC(0-inf) goes with less exposure. Take `O=C(NC1CCN(Cc2ccc(C(=O)NCCN3CCCC3)c(F)c2)CC1)c1cc(=O)c2ccc(F)cc2o1`: the Cmax in series [2] was 598 ng/mL; in [5], 185 ng/g. Besides, the results for the concentration at 12 h in series [3] and in series [8] were 38 ng/mL and 75 ng/g, respectively. Besides, the AUC in the series with Mus musculus came out at 1378 ng·h/g. The half-life in series [4] was 2 h; in [6], 8 h. The molecule also came in with an inhibition at 30 µM on hERG (KCNH2) of 21%. In [7], this molecule yielded an AUC(0-inf) of 3150 ng·h/mL. Further, the half-inhibitory concentration (IC50) in [1] was over 100 µM.
Molecule `O=C(CCN1CCCCC1)Nc1ccc(CN2CCC(NC(=O)c3cc(=O)c4ccc(F)cc4o3)CC2)cc1F` came in with an IC50 in series [1] of 9.18 µM.
Consider `COC(C)(C)CCOc1ccc(CN2CCC(NC(=O)c3cc(=O)c4ccc(F)cc4o3)CC2)cc1`, for which the IC50 in series [1] was determined as 4.3 µM.
